Measurements: patent publication US20060199736A1, “Environmentally benign bioactive formulation” (priority 2002, published 2006)

Key:
[1] = cited from earlier work
[2] = pH study of dilute solutions of VertecBio solvents in water; assay type: physicochemical
Procedure: The Citrus and Gold blends were made of 80% Ethyl lactate and 20% d-limonene and methyl soyate respectively. The pH was measured at various intervals and was recorded.
(§1) The initial pH of the water was approximately 7.80 pH units.

[3] = pH study of dilute solutions of VertecBio solvents with dichlorvos; assay type: physicochemical; details: solvent containing 1% dichlorvos
Procedure: In this example, the pH of a dilute solution of an organophosphate pesticide is tracked over time. The dilution into water is done without any surfactants.
The biosolvents were diluted in water at one, two, and three percent concentrations. The solvents, before being diluted, contained 1% dichlorvos. The VertecBio Citrus™ and Gold™ blends were made of 80% ethyl lactate and 20% d-limonene and methyl soyate respectively.
as §1

[4] = pH study of dilute solutions of VertecBio solvents with neem oil containing azadirachtin; assay type: physicochemical; details: solvent mixed with 3% (w/w) neem oil
Procedure: The biosolvents were mixed with 3% (w/w) neem oil containing the natural pesticide azadirachtin. These were diluted in water at one, two, and three percent concentrations. The Citrus™ and Gold™ blends were made of 80% ethyl lactate and 20% d-limonene and methyl soyate, respectively, as described above. […] The initial pH of the water was 7.80 pH units.

Which “½ Life at pH 5.0” value [1] does the source give for CCCCNC(=O)n1c(NC(=O)OC)nc2ccccc21 [Benlate, benomyl] here?
The value was 30 hr.

And the “½ Life at pH 7.0” value [1]?
The value was 1 hr.

With O=C1C2CC=CCC2C(=O)N1SC(Cl)(Cl)Cl (stereo not drawn) [Captan, captan] as the compound, how does the “½ Life at pH 5.0” value [1] read?
The value was 10 hr.

What about the “½ Life at pH 7.0” value [1] of the same compound?
The value was 3 hr.

What about the “½ Life at pH 8.0” value [1] of the same compound?
Its value is 10 min.

What about the “½ Life at pH 9.0” value [1] of the same compound?
The value was 2 min.

Which results are given for CNC(=O)CSP(=S)(OC)OC [Cygon, dimethoate]?
½ Life at pH 6.0 [1]: 12 hr; ½ Life at pH 9.0 [1]: 48 min

For CCOP(=S)(OCC)Oc1nc(Cl)c(Cl)cc1Cl [Dursban, chlorpyrofos], which “½ Life at pH 5.0” value [1] is on record?
Its value is 63 days.

And the “½ Life at pH 7.0” value [1]?
The value was 35 days.

And the “½ Life at pH 8.0” value [1]?
The value was 1.5 days.

For CCOC(=O)C(C)O (stereo not drawn) [Ethyl Lactate, ethyl lactate], which “pH of dilute solution” value ([2]; 1% in water, 2 hours) is on record?
The value was 7.25.

What about the “pH of dilute solution” value ([2]; 1% in water, 4 hours) of the same compound?
Its value is 7.10.

What about the “pH of dilute solution” value ([2]; 1% in water, 6 hours) of the same compound?
The value was 6.95.

What about the “pH of dilute solution” value ([2]; 1% in water, 8 hours) of the same compound?
Its value is 7.11.

What about the “pH of dilute solution” value ([2]; 1% in water, 24 hours) of the same compound?
The value was 6.78.

And the “pH of dilute solution” value ([2]; 1% in water, 48 hours)?
Its value is 6.75.

What about the “pH of dilute solution” value ([2]; 1% in water, 72 hours) of the same compound?
Its value is 6.56.

And the “pH of dilute solution” value ([2]; 1% in water, Initial)?
Its value is 7.75.

And the “pH of dilute solution” value ([2]; 2% in water, 2 hours)?
The value was 7.14.

What about the “pH of dilute solution” value ([2]; 2% in water, 4 hours) of the same compound?
Its value is 7.00.

And the “pH of dilute solution” value ([2]; 2% in water, 6 hours)?
Its value is 6.90.

What about the “pH of dilute solution” value ([2]; 2% in water, 8 hours) of the same compound?
The value was 6.90.

And the “pH of dilute solution” value ([2]; 2% in water, 24 hours)?
Its value is 6.56.

And the “pH of dilute solution” value ([2]; 2% in water, 48 hours)?
Its value is 6.43.

What about the “pH of dilute solution” value ([2]; 2% in water, 72 hours) of the same compound?
The value was 5.88.

What about the “pH of dilute solution” value ([2]; 2% in water, Initial) of the same compound?
Its value is 7.65.

And the “pH of dilute solution” value ([2]; 3% in water, 2 hours)?
Its value is 7.01.

What about the “pH of dilute solution” value ([2]; 3% in water, 4 hours) of the same compound?
The value was 6.90.

What about the “pH of dilute solution” value ([2]; 3% in water, 6 hours) of the same compound?
The value was 6.78.

And the “pH of dilute solution” value ([2]; 3% in water, 8 hours)?
The value was 6.79.

And the “pH of dilute solution” value ([2]; 3% in water, 24 hours)?
Its value is 6.47.

What about the “pH of dilute solution” value ([2]; 3% in water, 48 hours) of the same compound?
Its value is 5.93.

What about the “pH of dilute solution” value ([2]; 3% in water, 72 hours) of the same compound?
Its value is 5.47.

And the “pH of dilute solution” value ([2]; 3% in water, Initial)?
Its value is 7.54.

And the “pH of dilute solution” value ([3]; 1% in water, 4 hours)?
Its value is 7.3.

And the “pH of dilute solution” value ([3]; 1% in water, 24 hours)?
The value was 7.15.

What about the “pH of dilute solution” value ([3]; 1% in water, 48 hours) of the same compound?
Its value is 7.08.

And the “pH of dilute solution” value ([3]; 1% in water, 72 hours)?
The value was 6.89.

What about the “pH of dilute solution” value ([3]; 1% in water, Initial) of the same compound?
The value was 7.72.

And the “pH of dilute solution” value ([3]; 2% in water, 24 hours)?
Its value is 6.92.

And the “pH of dilute solution” value ([3]; 2% in water, 48 hours)?
Its value is 6.55.

And the “pH of dilute solution” value ([3]; 2% in water, 72 hours)?
Its value is 6.04.

And the “pH of dilute solution” value ([3]; 2% in water, Initial)?
Its value is 7.5.

What about the “pH of dilute solution” value ([3]; 3% in water, 4 hours) of the same compound?
The value was 6.97.

What about the “pH of dilute solution” value ([3]; 3% in water, 24 hours) of the same compound?
Its value is 6.6.

What about the “pH of dilute solution” value ([3]; 3% in water, 48 hours) of the same compound?
Its value is 6.28.

What about the “pH of dilute solution” value ([3]; 3% in water, 72 hours) of the same compound?
The value was 5.45.

And the “pH of dilute solution” value ([3]; 3% in water, Initial)?
The value was 7.51.

And the “pH of dilute solution” value ([4]; 1% in water, 4 hours)?
Its value is 7.43.

And the “pH of dilute solution” value ([4]; 1% in water, 24 hours)?
The value was 6.77.

What about the “pH of dilute solution” value ([4]; 1% in water, 48 hours) of the same compound?
The value was 6.94.

And the “pH of dilute solution” value ([4]; 1% in water, 72 hours)?
The value was 6.39.

And the “pH of dilute solution” value ([4]; 1% in water, Initial)?
The value was 7.59.

And the “pH of dilute solution” value ([4]; 2% in water, 48 hours)?
Its value is 6.74.

And the “pH of dilute solution” value ([4]; 2% in water, 72 hours)?
Its value is 6.02.

What about the “pH of dilute solution” value ([4]; 2% in water, Initial) of the same compound?
The value was 7.41.

What about the “pH of dilute solution” value ([4]; 3% in water, 24 hours) of the same compound?
Its value is 6.68.

What about the “pH of dilute solution” value ([4]; 3% in water, 48 hours) of the same compound?
Its value is 6.61.

What about the “pH of dilute solution” value ([4]; 3% in water, 72 hours) of the same compound?
The value was 5.78.

What about the “pH of dilute solution” value ([4]; 3% in water, Initial) of the same compound?
Its value is 7.31.

Which results are given for COP(=S)(OC)SCn1nnc2ccccc2c1=O [Guthion, azin-phos methyl]?
½ Life at pH 5.0 [1]: 60 hr; ½ Life at pH 9.0 [1]: 12 hr

For COP(=S)(OC)SCN1C(=O)c2ccccc2C1=O [Imidan, phosmet], which “½ Life at pH 5.0” value [1] is on record?
The value was 7 days.

What about the “½ Life at pH 7.0” value [1] of the same compound?
The value was 12 hr.

And the “½ Life at pH 8.0” value [1]?
Its value is 4 hr.

Which “½ Life at pH 6.0” value [1] does the source give for CCOC(=O)CC(SP(=S)(OC)OC)C(=O)OCC (stereo not drawn) [Malathion, malathion] here?
Its value is 8 days.

What about the “½ Life at pH 7.0” value [1] of the same compound?
The value was 3 days.

What about the “½ Life at pH 8.0” value [1] of the same compound?
Its value is 19 hr.

And the “½ Life at pH 9.0” value [1]?
Its value is 5 hr.

Which results are given for CNC(=O)Oc1cccc2ccccc12 [Sevin, carbaryl]?
½ Life at pH 7.0 [1]: 10 days; ½ Life at pH 9.0 [1]: 24 hr
